Reference: patent US12384753B2, “17-beta-hydroxysteroid dehydrogenase type 13 inhibitors and methods of use thereof” (Enanta Pharmaceuticals, Inc., priority 2021, dated 2025)

Molecular target: Recombinant human HSD17B13 (Homo sapiens (Human), UniProt Q7Z5P4)
Assay: HSD17B13 rapid-fire mass spectrometry assay (RF/MS assay)
Type: biochemical
Details: inhibition of HSD17B13; LTB4 10 μM, NAD+ 0.5 mM, RT 3 h; IC50 ranges A-E
Summary of the method: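 Product 12-oxo-LTB4 and substrate LTB4 quantified by RapidFire triple-quad MS in negative mode, giving percent conversion. Reaction: 80 nM recombinant hHSD17B13, 10 μM LTB4, 0.5 mM NAD+, compound up to 100 μM, pH 7.5, RT, 3 h. Variable-slope fit gave IC50; run in duplicate.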

Chain of Recombinant human HSD17B13 (Q7Z5P4 20-300): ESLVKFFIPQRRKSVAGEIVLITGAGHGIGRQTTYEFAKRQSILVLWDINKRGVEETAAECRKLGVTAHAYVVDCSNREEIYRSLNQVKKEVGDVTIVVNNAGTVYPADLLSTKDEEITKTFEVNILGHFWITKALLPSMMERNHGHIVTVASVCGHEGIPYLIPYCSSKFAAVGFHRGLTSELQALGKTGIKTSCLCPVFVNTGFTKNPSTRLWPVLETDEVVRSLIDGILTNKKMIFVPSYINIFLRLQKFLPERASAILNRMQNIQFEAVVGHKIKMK

COc1cc(C(=O)O)c(F)cc1NS(=O)(=O)c1csc(-c2ccc([C@H]3CC[C@@H](C(C)(C)C)CC3)cc2C(F)(F)F)n1 [Example 782]
IC50: 0.1 to 0.5 µM

COc1cc(C(=O)O)c(F)cc1NS(=O)(=O)c1csc(-c2ccc(-c3ccc([C@H]4CC[C@@H](C(C)(C)C)CC4)cc3C(F)(F)F)cc2C(F)(F)F)n1 [Example 783]
IC50: 0.1 to 0.5 µM

COc1cc(C(=O)O)c(F)cc1NS(=O)(=O)c1csc(-c2ccc(-c3ccc(C(F)(F)C(F)(F)F)cc3)cc2C(F)(F)F)n1 [Example 784]
IC50: < 0.1 µM

CCC1CC=C(c2ccc(-c3nc(S(=O)(=O)Nc4cc(F)c(C(=O)O)cc4OC)cs3)c(C(F)(F)F)c2)CC1 (stereo not shown) [Example 785]
IC50: < 0.1 µM

CCC1CCC(c2ccc(-c3nc(S(=O)(=O)Nc4cc(F)c(C(=O)O)cc4OC)cs3)c(C(F)(F)F)c2)CC1 (stereo not shown) [Example 786]
IC50: 0.1 to 0.5 µM

CC[C@H]1CC[C@H](c2ccc(-c3nc(S(=O)(=O)Nc4cc(F)c(C(=O)O)cc4OC)cs3)c(C(F)(F)F)c2)CC1 [Example 787]
IC50: < 0.1 µM

COc1cc(C(=O)O)c(F)cc1NS(=O)(=O)c1csc(-c2ccc(-c3ccc(-c4ccc(C(F)(F)C(F)(F)F)cc4)cc3C(F)(F)F)cc2C(F)(F)F)n1 [Example 788]
IC50: 0.1 to 0.5 µM

COc1cc(C(=O)O)c(F)cc1NS(=O)(=O)c1csc(-c2ccc(-c3cc(F)c(C(F)(F)F)c(F)c3)c(OC(C)C)c2F)n1 [Example 790]
IC50: < 0.1 µM

COc1cc(C(=O)O)c(F)cc1NS(=O)(=O)c1csc(-c2ccc(-c3ccc(C(F)(C(F)(F)F)C(F)(F)F)cc3)c(OC(C)C)c2F)n1 [Example 793]
IC50: < 0.1 µM

COc1cc(C(=O)O)c(F)cc1NS(=O)(=O)c1csc(-c2ccc(-c3ccc(C4(C(F)(F)F)CC4)cc3)cc2C(F)(F)F)n1 [Example 794]
IC50: < 0.1 µM

COc1cc(C(=O)O)c(F)cc1NS(=O)(=O)c1csc(-c2ccc(-c3ccc(C(F)(C(F)(F)F)C(F)(F)F)cc3)cc2C(F)(F)F)n1 [Example 795]
IC50: < 0.1 µM

COc1cc(C(=O)O)c(F)cc1NS(=O)(=O)c1csc(-c2ccc(-c3ccc(-c4ccc(C5(C(F)(F)F)CC5)cc4)cc3C(F)(F)F)cc2C(F)(F)F)n1 [Example 796]
IC50: 0.1 to 0.5 µM

COc1cc(C(=O)O)c(F)cc1NS(=O)(=O)c1csc(-c2ccc(-c3ccc(-c4ccc(C(F)(C(F)(F)F)C(F)(F)F)cc4)cc3C(F)(F)F)cc2C(F)(F)F)n1 [Example 797]
IC50: 0.1 to 0.5 µM

COc1cc(C(=O)O)c(F)cc1NS(=O)(=O)c1ccc2sc(-c3ccc([C@H]4CC[C@H](C(C)C)CC4)cc3C(F)(F)F)nc2c1 [Example 798]
IC50: 0.1 to 0.5 µM

COc1cc(C(=O)O)c(F)cc1NS(=O)(=O)c1csc(-c2ccc(C3=CCC(C(C)C)CC3)c(OC)c2F)n1 (stereo not shown) [Example 799]
IC50: < 0.1 µM

COc1cc(C(=O)O)c(F)cc1NS(=O)(=O)c1csc(C2=CCC(C(C)C)CC2)n1 (stereo not shown) [Example 800]
IC50: 0.5 to 1 µM

COc1cc(C(=O)O)c(F)cc1NS(=O)(=O)c1csc(-c2ccc([C@H]3CC[C@@H](C(C)C)CC3)c(OC)c2F)n1 [Example 802]
IC50: < 0.1 µM

COc1cc(C(=O)O)c(F)cc1NS(=O)(=O)c1csc(-c2ccc([C@H]3CC[C@H](C(C)C)CC3)c(OC)c2F)n1 [Example 803]
IC50: < 0.1 µM

COc1cc(C(=O)O)c(F)cc1NS(=O)(=O)c1csc(-c2ccc(-c3ccc(-c4ccc(C5=CCC(C(C)(C)C)CC5)cc4C(F)(F)F)cc3C(F)(F)F)cc2C(F)(F)F)n1 (stereo not shown) [Example 804]
IC50: 1 to 100 µM

COc1cc(C(=O)O)c(F)cc1NS(=O)(=O)c1csc(-c2ccc([C@H]3CC[C@@H](C(C)C)CC3)c(F)c2C)n1 [Example 805]
IC50: < 0.1 µM

COc1cc(C(=O)O)c(F)cc1NS(=O)(=O)c1csc(-c2ccc([C@H]3CC[C@H](C(C)C)CC3)c(F)c2C)n1 [Example 806]
IC50: < 0.1 µM

COc1cc(C(=O)O)c(F)cc1NS(=O)(=O)c1csc(-c2ccc([C@H]3CC[C@@H](C(C)C)CC3)c(C)c2F)n1 [Example 807]
IC50: < 0.1 µM

COc1cc(C(=O)O)c(F)cc1NS(=O)(=O)c1csc(-c2ccc([C@H]3CC[C@H](C(C)C)CC3)c(C)c2F)n1 [Example 808]
IC50: < 0.1 µM

CCOc1c(C2=CCC(C(C)C)CC2)ccc(-c2nc(S(=O)(=O)Nc3cc(F)c(C(=O)O)cc3OC)cs2)c1F (stereo not shown) [Example 809]
IC50: < 0.1 µM

COc1cc(C(=O)O)c(F)cc1NS(=O)(=O)c1csc(-c2ccc(C3=CCC(C(F)(F)F)CC3)c(OC(C)C)c2F)n1 (stereo not shown) [Example 810]
IC50: < 0.1 µM

COc1cc(C(=O)O)c(F)cc1NS(=O)(=O)c1csc(-c2ccc(C3CCC(C(F)(F)F)CC3)c(OC(C)C)c2F)n1 (stereo not shown) [Example 811]
IC50: 0.1 to 0.5 µM

COc1cc(C(=O)O)c(F)cc1NS(=O)(=O)c1csc(-c2ccc(C3CCC(C(F)(F)F)CC3)c(OC(C)C)c2F)n1 (stereo not shown) [Example 812]
IC50: < 0.1 µM

COc1cc(C(=O)O)c(F)cc1NS(=O)(=O)c1csc(-c2ccc(C3=CCC(C(F)(F)F)CC3)c(C)c2F)n1 (stereo not shown) [Example 813]
IC50: < 0.1 µM

CCOc1c(F)c(-c2nc(S(=O)(=O)Nc3cc(F)c(C(=O)O)cc3OC)cs2)ccc1[C@H]1CC[C@@H](C(F)(F)F)CC1 [Example 814]
IC50: < 0.1 µM

CCOc1c(F)c(-c2nc(S(=O)(=O)Nc3cc(F)c(C(=O)O)cc3OC)cs2)ccc1[C@H]1CC[C@H](C(F)(F)F)CC1 [Example 815]
IC50: 0.1 to 0.5 µM

CCOc1c(C2=CCC(C(F)(F)F)CC2)ccc(-c2nc(S(=O)(=O)Nc3cc(F)c(C(=O)O)cc3OC)cs2)c1F (stereo not shown) [Example 816]
IC50: < 0.1 µM
